Activity calls are given as the source filed them. The rule behind the calls is not given here.
Key:
[1] = Microsomal stability in human liver microsomes assessed as hepatic clearance at 1 uM by LC-MS/MS analysis; format: ADME, Microsome
[2] = Microsomal stability in human liver microsomes assessed as hepatic extraction ratio at 1 uM by LC-MS/MS analysis; format: ADME, Microsome; conditions: read-out: ERH
[3] = Microsomal stability in rat liver microsomes assessed as hepatic extraction ratio at 1 uM by LC-MS/MS analysis; format: ADME, Microsome; conditions: read-out: ERH
[4] = Inhibition of RSL3 induced ferroptosis in H9c2 cells assessed as cell viability incubated for 24 hrs by CellTiter-LumiTM assay; format: functional, cell-based; conditions: Rattus norvegicus, H9c2, 24 h
786-0 [5] = assay: Metal chelating activity assessed as Fe2+ chelation in human 786-0 cells assessed as intracellular ferrous ion level at 1 uM by FerroOrange fluorescent probe based assay; format: cell-based
Mus musculus [6] = assay: Anti-ferroptotic activity in ConA-induced C57 mouse liver injury model assessed as decrease in acute liver injury at 10 mg/kg, ip pre-administered one day followed by treated with ConA measured after 24 hrs by HE staining based analysis; format: functional, organism-based; conditions: time 48.0 hrs
786-0 [7] = assay: Effect on FTH1 expression in human 786-0 cells in presence of 0.25 uM RSL3 at 1 uM incubated for 2.5 hrs by Western blot analysis; format: functional, cell-based
[8] = Microsomal stability in rat liver microsomes assessed as hepatic extraction ratio at 0.1 uM by LC-MS/MS analysis; format: ADME, Microsome; conditions: read-out: ERH
786-0 [9] = assay: Effect on ACSL4 expression in human 786-0 cells at 1 uM incubated for 2.5 hrs by Western blot analysis; format: functional, cell-based
786-0 [10] = assay: Inhibition of RSL3-induced ferroptosis in human 786-0 cells assessed as cell viability incubated for 24 hrs by CellTiter-LumiTM assay; format: functional, cell-based; conditions: 786-0, 24 h
786-0 [11] = assay: Effect on GPX4 expression in human 786-0 cells at 1 uM incubated for 2.5 hrs by Western blot analysis; format: functional, cell-based
786-0 [12] = assay: Effect on TFRC expression in human 786-0 cells at 1 uM incubated for 2.5 hrs by Western blot analysis; format: functional, cell-based
786-0 [13] = assay: Effect on IRP1 expression in human 786-0 cells at 1 uM incubated for 2.5 hrs by western blot analysis; format: functional, cell-based
786-0 [14] = assay: Inhibition of RSL3-induced ferroptosis in human 786-0 cells assessed as cell viability by assessing cell morphology incubated for 24 hrs by CellTiter-LumiTM plus luminescent cell viability assay; format: functional, cell-based; conditions: 786-0, 24 h
[15] = Inhibition of erastin induced ferroptosis in human 786-0 cells assessed as cell viability incubated for 24 hrs by CellTiter-LumiTM assay; format: functional, cell-based; conditions: 786-0, 24 h
786-0 [16] = assay: Effect on erastin-induced decrease in GSH level in human 786-0 cells at 1 uM incubated for 10 hrs by Total intracellular GSH assay; format: functional, cell-based
786-0 [17] = assay: Effect on IRP1 expression in human 786-0 cells in presence of 0.25 uM RSL3 at 1 uM incubated for 2.5 hrs by Western blot analysis; format: functional, cell-based
[18] = Microsomal stability in rat liver microsomes assessed as half life at 0.1 uM by LC-MS/MS analysis; format: ADME, Microsome; conditions: microsomes, 0.1 µM
786-0 [19] = assay: Effect on FTL expression in human 786-0 cells at 1 uM incubated for 2.5 hrs by western blot analysis; format: functional, cell-based
786-0 [20] = assay: Inhibition of H2O2 induced necrosis in human 786-0 cells assessed as cell viability at 1 uM incubated for 24 hrs by CellTiter-LumiTM assay; format: functional, cell-based
786-0 [21] = assay: Inhibition of RSL3 induced lipid-ROS accumulation in human 786-0 cells incubated for 2.5 hrs by C11-BODIPY 581/591 staining coupled with flow cytometry analysis; format: functional, cell-based; conditions: dose 0.1-1 µM
786-0 [22] = assay: Inhibition of RSL3 induced lipid-ROS accumulation in human 786-0 cells assessed as fast elimination at 1 uM measured after 0.25 to 2.5 hrs by C11-BODIPY 581/591 staining coupled with flow cytometry analysis; format: functional, cell-based; conditions: time 0.25-2.5 hrs
786-0 [23] = assay: Effect on SLC7A11 expression in human 786-0 cells at 1 uM incubated for 2.5 hrs by Western blot analysis; format: functional, cell-based
[24] = Metabolic stability in rat plasma assessed as half life at 1 uM by LC-MS/MS analysis; format: ADME, cell-free
[25] = Suppression of autoxidation of liposomes egg ( unknown origin) phosphatidylcholine lipids as substrate at 0.1 to 2.5 uM incubated for 5 min by C11-BODIPY 581/591 dye based fluorescent assay; format: functional; conditions: dose 0.1-2.5 µM
[26] = Inhibition of RSL3 induced ferroptosis in human HT-1080 cells assessed as cell viability incubated for 24 hrs by CellTiter-LumiTM assay; format: functional, cell-based; conditions: HT-1080, 24 h
786-0 [27] = assay: Effect on FTH1 expression in human 786-0 cells at 1 uM incubated for 2.5 hrs by western blot analysis; format: functional, cell-based
Mus musculus [28] = assay: Anti-ferroptotic activity in ConA-induced C57 mouse acute liver injury model assessed as reduction in malondialdehyde levels at 10 mg/kg, ip pre-administered one day followed by treated with ConA measured after 24 hrs by MDA kit assay; format: functional, organism-based; conditions: time 48.0 hrs
[29] = Metabolic stability in human plasma assessed as half life at 1 uM by LC-MS/MS analysis; format: ADME, cell-free
SK-HEP1 [30] = assay: Inhibition of RSL3 induced lipid-ROS accumulation in human SK-HEP1 cells at 1 uM incubated for 0.5 hrs by C11-BODIPY 581/591 staining coupled with flow cytometry analysis; format: functional, cell-based
Mus musculus [31] = assay: Anti-ferroptotic activity in ConA-induced C57 mouse acute liver injury model assessed as assessed as reduction in PTGS2 mRNA levels in liver tissue at 10 mg/kg, ip pre-administered one day followed by treated with ConA measured after 24 hrs by qRT-PCR analysis; format: functional, organism-based; conditions: time 48.0 hrs
786-0 [32] = assay: Inhibition of RSL3 induced ferroptosis in human 786-0 cells assessed as cell viability in presence of iFSP1 at 1 uM measured after 24 hrs by CellTiter-LumiTM assay; format: functional, cell-based
[33] = Antioxidant activity assessed as free radical scavenging activity incubated for 30 mins in dark by DPPH assay relative to control; format: functional
HT-1080 = assay: Anti-ferroptotic activity in human GPX4 knockout HT-1080 cells assessed as cell viability at 1 uM incubated for 24 hrs by CellTiter-LumiTM plus luminescent cell viability assay; format: functional, cell-based
[34] = Microsomal stability in human liver microsomes assessed as hepatic extraction ratio at 0.1 uM by LC-MS/MS analysis; format: ADME, Microsome; conditions: read-out: ERH
Mus musculus [35] = assay: Anti-ferroptotic activity in ConA-induced C57 mouse liver injury model assessed as reduction in ALT levels in serum at 10 mg/kg, ip pre-treated 1 day followed by treated with ConA measured after 24 hrs; format: functional, organism-based; conditions: time 2.0 day
786-0 [36] = assay: Effect on TFRC expression in human 786-0 cells in presence of 0.25 uM RSL3 at 1 uM incubated for 2.5 hrs by Western blot analysis; format: functional, cell-based
786-0 [37] = assay: Inhibition of STS induced apoptosis in human 786-0 cells assessed as cell viability at 1 uM incubated for 24 hrs by CellTiter-LumiTM assay; format: functional, cell-based
786-0 [38] = assay: Effect on FTL expression in human 786-0 cells in presence of 0.25 uM RSL3 at 1 uM incubated for 2.5 hrs by Western blot analysis; format: functional, cell-based
SK-HEP1 [39] = assay: Inhibition of RSL3 induced lipid-ROS accumulation in human SK-HEP1 cells at 1 uM incubated for 2.5 hrs by C11-BODIPY 581/591 staining coupled with flow cytometry analysis; format: functional, cell-based
786-0 [40] = assay: Cytotoxicity against human 786-0 cells assessed as cell viability incubated for 24 hrs by CellTiter-LumiTM assay; format: functional
Mus musculus [41] = assay: Anti-ferroptotic activity in ConA-induced C57 mouse liver injury model assessed as reduction in AST levels in serum at 10 mg/kg, ip pre-treated 1 day followed by challenged with ConA measured after 24 hrs; format: functional, organism-based
[42] = Inhibition of RSL3 induced ferroptosis in human SK-HEP1 cells assessed as cell viability incubated for 24 hrs by CellTiter-LumiTM assay; format: functional, cell-based; conditions: SK-HEP1, 24 h
[43] = Microsomal stability in human liver microsomes assessed as half life at 0.1 uM by LC-MS/MS analysis; format: ADME, Microsome; conditions: microsomes, 0.1 µM
[44] = Inhibition of RSL3 induced ferroptosis in human MHCC97H cells assessed as cell viability incubated for 24 hrs by CellTiter-LumiTM assay; format: functional, cell-based
Mus musculus [45] = assay: Anti-ferroptotic activity in ConA-induced C57 mouse acute liver injury model assessed as assessed as reduction in 4-HNE accumulation in liver tissue at 10 mg/kg, ip pre-administered one day followed by treated with ConA measured after 24 hrs by 4-HNE staining based analysis; format: functional, organism-based; conditions: time 48.0 hrs

Structure (SMILES): C[C@]12CC[C@H]3[C@@H](CCC4=CC(=O)CC[C@@]43C)[C@@H]1CC[C@@H]2O [TESTOSTERONE]
- CLhep predicted at 1 µM [1]: 19.3 mL/min/kg
- hepatic extraction ratio at 1 µM [2]: 0.935
- hepatic extraction ratio at 1 µM [3]: 0.994

Structure (SMILES): COc1ccc(COc2c(OC)cccc2C2N(c3ccccc3)N=C(C(C)=O)N2c2ccc(N(C)C)cc2)cc1 (stereo unspecified)
- EC50 [4]: 142 nM
- Activity (786-0 [5]): inactive
- Activity (Mus musculus [6]): Active
- Activity (786-0 [7]): inactive
- hepatic extraction ratio at 0.1 µM [8]: 0.993
- Activity (786-0 [9]): No effect
- EC50 (786-0 [10]): 80 nM
- Activity (786-0 [11]): No effect
- Activity (786-0 [12]): No effect
- Activity (786-0 [13]): No effect
- EC50 (786-0 [14]): 84 nM
- EC50 [15]: 54 nM
- Activity (786-0 [16]): inactive
- Activity (786-0 [17]): inactive
- t1/2 [18]: 1.66 min
- Activity (786-0 [19]): No effect
- inhibition (786-0 [20]): inactive
- inhibition (786-0 [21]): Dose-dependent-effect
- inhibition (786-0 [22]): Active; Eliminated As Fast As Fer-1
- Activity (786-0 [23]): No effect
- half-life at 1 µM [24]: 4.97 h
- Activity [25]: Dose-dependent-effect
- EC50 [26]: 74 nM
- Activity (786-0 [27]): No effect
- Activity (Mus musculus [28]): Active
- half-life at 1 µM [29]: 23.9 h
- inhibition (SK-HEP1 [30]): Active
- Activity (Mus musculus [31]): Active
- inhibition (786-0 [32]): Active
- Activity [33]: Active
- Activity (HT-1080): Active
- hepatic extraction ratio at 0.1 µM [34]: 0.99
- Activity (Mus musculus [35]): Active
- Activity (786-0 [36]): inactive
- inhibition (786-0 [37]): inactive
- Activity (786-0 [38]): inactive
- inhibition (SK-HEP1 [39]): Active
- CC50 (786-0 [40]): > 10000 nM
- Activity (Mus musculus [41]): Active
- EC50 [42]: 164 nM
- t1/2 [43]: 4.02 min
- EC50 [44]: 349 nM
- Activity (Mus musculus [45]): Active

Source: ChEMBL document CHEMBL6120996, “Discovery and optimization of 1,2,4-triazole derivatives as novel ferroptosis inhibitors” (Eur J Med Chem, 2025)
